According to patent publication US20090098145A1, “METHODS AND COMPOSITIONS FOR TREATING OPHTHALMIC CONDITIONS VIA MODULATION OF MEGALIN ACTIVITY” (Sirion Therapeutics, Inc., priority 2006, published 2009):

Assays:
[1] = in vivo; cited from earlier work
[2] = test system: megalin; test: Megalin protein level in mouse eyecup membrane fractions by immunoblot; type: in vivo; conditions: MPR-treated mice compared to age-matched wild-type and abcr knockout mice; two immunoreactive bands
Procedure: FIG. 12. Illustrates megalin protein level in the eye cup from mice with different serum RBP-retinol levels. LDL receptors function to uptake RBP-retinol into RPE. RBP knockout mouse and MPR-treated mouse have lower serum RBP-retinol level. Expression of megalin in eyecup tissues from these mice were examined by immunoblot. Membrane fractions of mouse eyecups were prepared from wild-type mouse (WT), RBP knockout mouse (RBP−/−), ABCR null (abcr−/−) and MPR-treated mice (MPR). Two immunoreactive bands were detected (indicated by white arrows in the figure).
Preparation of Megalin-enriched Membranes from Whole Tissue—Sucrose density centrifugation was used to separate the membranous constituents from kidney, retina and RPE-eyecup (RPE plus choroid and sclera) samples. Following dissection, tissue samples were homogenized in a buffer containing 0.25 M sucrose (pH 7.5). The homogenates were centrifuged at 27,000×g for 20 min. The supernatant fraction was discarded and the resulting pellet (P1) was homogenized in a buffer containing 0.5% CHAPS. […]
Immunoblot Analyses—Protein samples which were used for immunoblot analyses were resuspended in SDS loading buffer. […] The membrane was washed four times, developed with ChemiGlow West Substrate (Alpha Innotech, San Leandro, Calif.) and then visualized by a luminescence imager (Fluor Chem from Alpha Innotech).

[3] = target: gp330 (Rattus norvegicus, UniProt P98158); conditions: cited from earlier work
[4] = test system: human RPE cells; test: Uptake of Alexa Fluor 488-labelled RBP* and IRBP* by RPE cells with and without RAP (fluorescence microscopy, retinyl esters by HPLC); type: cell-based
Procedure: FIG. 13. Illustrates uptake of RBP- and IRBP-retinol into human RPE. Holo-RBP and IRBP were covalently labeled with a fluorescent probe (Alexa Fluor 488). The labeled proteins (RBP* and IRBP*) were added to either the basal (RBP*) or apical (IRBP*) compartments of the RPE cell culture system. Following a 1 hour incubation at 37° C., the media were removed, the cells were extensively washed and the tissues samples analyzed by fluorescence microscopy.
FIG. 14. Illustrates that RAP inhibits basal uptake of RBP-retinol and apical uptake of IRBP-retinol. Uptake of IRBP* and RBP* by RPE cells was monitored before (panels A and B, respectively) and after (panels D and E, respectively) treatment with the LDL receptor antagonist, RAP. […] To ensure that retinol was also taken into the RPE cells, the cells were washed, collected and analyzed for retinoid content by HPLC. Uptake of retinol into RPE cells results in rapid esterification resulting in retinyl ester formation.

[5] = target: VLDL receptor (Homo sapiens, UniProt P98155); conditions: cited from earlier work
[6] = target: megalin (Homo sapiens, UniProt P98164); conditions: cited from earlier work
[7] = target: LDL receptor (Homo sapiens, UniProt P01130); conditions: cited from earlier work
[8] = test system: human RPE cells; test: Uptake of RBP-retinol in human RPE cell cultures after antibody or RAP blocking (HPLC of intracellular atRE and atROL); type: cell-based; conditions: RAP added to basal chamber, 2 hours at 4° C.; RBP-retinol (10 μM) in basal media; vs pre-immune rabbit IgG
[9] = target: LRP (Homo sapiens, UniProt Q07954); conditions: cited from earlier work
[10] = target: LDL receptors (on human RPE cells); test: cell-based or functional assay
[11] = RAP treatment, fluorescence microscopy

Chain of megalin (Homo sapiens, UniProt P98164) (P98164 26-4655, species assumed): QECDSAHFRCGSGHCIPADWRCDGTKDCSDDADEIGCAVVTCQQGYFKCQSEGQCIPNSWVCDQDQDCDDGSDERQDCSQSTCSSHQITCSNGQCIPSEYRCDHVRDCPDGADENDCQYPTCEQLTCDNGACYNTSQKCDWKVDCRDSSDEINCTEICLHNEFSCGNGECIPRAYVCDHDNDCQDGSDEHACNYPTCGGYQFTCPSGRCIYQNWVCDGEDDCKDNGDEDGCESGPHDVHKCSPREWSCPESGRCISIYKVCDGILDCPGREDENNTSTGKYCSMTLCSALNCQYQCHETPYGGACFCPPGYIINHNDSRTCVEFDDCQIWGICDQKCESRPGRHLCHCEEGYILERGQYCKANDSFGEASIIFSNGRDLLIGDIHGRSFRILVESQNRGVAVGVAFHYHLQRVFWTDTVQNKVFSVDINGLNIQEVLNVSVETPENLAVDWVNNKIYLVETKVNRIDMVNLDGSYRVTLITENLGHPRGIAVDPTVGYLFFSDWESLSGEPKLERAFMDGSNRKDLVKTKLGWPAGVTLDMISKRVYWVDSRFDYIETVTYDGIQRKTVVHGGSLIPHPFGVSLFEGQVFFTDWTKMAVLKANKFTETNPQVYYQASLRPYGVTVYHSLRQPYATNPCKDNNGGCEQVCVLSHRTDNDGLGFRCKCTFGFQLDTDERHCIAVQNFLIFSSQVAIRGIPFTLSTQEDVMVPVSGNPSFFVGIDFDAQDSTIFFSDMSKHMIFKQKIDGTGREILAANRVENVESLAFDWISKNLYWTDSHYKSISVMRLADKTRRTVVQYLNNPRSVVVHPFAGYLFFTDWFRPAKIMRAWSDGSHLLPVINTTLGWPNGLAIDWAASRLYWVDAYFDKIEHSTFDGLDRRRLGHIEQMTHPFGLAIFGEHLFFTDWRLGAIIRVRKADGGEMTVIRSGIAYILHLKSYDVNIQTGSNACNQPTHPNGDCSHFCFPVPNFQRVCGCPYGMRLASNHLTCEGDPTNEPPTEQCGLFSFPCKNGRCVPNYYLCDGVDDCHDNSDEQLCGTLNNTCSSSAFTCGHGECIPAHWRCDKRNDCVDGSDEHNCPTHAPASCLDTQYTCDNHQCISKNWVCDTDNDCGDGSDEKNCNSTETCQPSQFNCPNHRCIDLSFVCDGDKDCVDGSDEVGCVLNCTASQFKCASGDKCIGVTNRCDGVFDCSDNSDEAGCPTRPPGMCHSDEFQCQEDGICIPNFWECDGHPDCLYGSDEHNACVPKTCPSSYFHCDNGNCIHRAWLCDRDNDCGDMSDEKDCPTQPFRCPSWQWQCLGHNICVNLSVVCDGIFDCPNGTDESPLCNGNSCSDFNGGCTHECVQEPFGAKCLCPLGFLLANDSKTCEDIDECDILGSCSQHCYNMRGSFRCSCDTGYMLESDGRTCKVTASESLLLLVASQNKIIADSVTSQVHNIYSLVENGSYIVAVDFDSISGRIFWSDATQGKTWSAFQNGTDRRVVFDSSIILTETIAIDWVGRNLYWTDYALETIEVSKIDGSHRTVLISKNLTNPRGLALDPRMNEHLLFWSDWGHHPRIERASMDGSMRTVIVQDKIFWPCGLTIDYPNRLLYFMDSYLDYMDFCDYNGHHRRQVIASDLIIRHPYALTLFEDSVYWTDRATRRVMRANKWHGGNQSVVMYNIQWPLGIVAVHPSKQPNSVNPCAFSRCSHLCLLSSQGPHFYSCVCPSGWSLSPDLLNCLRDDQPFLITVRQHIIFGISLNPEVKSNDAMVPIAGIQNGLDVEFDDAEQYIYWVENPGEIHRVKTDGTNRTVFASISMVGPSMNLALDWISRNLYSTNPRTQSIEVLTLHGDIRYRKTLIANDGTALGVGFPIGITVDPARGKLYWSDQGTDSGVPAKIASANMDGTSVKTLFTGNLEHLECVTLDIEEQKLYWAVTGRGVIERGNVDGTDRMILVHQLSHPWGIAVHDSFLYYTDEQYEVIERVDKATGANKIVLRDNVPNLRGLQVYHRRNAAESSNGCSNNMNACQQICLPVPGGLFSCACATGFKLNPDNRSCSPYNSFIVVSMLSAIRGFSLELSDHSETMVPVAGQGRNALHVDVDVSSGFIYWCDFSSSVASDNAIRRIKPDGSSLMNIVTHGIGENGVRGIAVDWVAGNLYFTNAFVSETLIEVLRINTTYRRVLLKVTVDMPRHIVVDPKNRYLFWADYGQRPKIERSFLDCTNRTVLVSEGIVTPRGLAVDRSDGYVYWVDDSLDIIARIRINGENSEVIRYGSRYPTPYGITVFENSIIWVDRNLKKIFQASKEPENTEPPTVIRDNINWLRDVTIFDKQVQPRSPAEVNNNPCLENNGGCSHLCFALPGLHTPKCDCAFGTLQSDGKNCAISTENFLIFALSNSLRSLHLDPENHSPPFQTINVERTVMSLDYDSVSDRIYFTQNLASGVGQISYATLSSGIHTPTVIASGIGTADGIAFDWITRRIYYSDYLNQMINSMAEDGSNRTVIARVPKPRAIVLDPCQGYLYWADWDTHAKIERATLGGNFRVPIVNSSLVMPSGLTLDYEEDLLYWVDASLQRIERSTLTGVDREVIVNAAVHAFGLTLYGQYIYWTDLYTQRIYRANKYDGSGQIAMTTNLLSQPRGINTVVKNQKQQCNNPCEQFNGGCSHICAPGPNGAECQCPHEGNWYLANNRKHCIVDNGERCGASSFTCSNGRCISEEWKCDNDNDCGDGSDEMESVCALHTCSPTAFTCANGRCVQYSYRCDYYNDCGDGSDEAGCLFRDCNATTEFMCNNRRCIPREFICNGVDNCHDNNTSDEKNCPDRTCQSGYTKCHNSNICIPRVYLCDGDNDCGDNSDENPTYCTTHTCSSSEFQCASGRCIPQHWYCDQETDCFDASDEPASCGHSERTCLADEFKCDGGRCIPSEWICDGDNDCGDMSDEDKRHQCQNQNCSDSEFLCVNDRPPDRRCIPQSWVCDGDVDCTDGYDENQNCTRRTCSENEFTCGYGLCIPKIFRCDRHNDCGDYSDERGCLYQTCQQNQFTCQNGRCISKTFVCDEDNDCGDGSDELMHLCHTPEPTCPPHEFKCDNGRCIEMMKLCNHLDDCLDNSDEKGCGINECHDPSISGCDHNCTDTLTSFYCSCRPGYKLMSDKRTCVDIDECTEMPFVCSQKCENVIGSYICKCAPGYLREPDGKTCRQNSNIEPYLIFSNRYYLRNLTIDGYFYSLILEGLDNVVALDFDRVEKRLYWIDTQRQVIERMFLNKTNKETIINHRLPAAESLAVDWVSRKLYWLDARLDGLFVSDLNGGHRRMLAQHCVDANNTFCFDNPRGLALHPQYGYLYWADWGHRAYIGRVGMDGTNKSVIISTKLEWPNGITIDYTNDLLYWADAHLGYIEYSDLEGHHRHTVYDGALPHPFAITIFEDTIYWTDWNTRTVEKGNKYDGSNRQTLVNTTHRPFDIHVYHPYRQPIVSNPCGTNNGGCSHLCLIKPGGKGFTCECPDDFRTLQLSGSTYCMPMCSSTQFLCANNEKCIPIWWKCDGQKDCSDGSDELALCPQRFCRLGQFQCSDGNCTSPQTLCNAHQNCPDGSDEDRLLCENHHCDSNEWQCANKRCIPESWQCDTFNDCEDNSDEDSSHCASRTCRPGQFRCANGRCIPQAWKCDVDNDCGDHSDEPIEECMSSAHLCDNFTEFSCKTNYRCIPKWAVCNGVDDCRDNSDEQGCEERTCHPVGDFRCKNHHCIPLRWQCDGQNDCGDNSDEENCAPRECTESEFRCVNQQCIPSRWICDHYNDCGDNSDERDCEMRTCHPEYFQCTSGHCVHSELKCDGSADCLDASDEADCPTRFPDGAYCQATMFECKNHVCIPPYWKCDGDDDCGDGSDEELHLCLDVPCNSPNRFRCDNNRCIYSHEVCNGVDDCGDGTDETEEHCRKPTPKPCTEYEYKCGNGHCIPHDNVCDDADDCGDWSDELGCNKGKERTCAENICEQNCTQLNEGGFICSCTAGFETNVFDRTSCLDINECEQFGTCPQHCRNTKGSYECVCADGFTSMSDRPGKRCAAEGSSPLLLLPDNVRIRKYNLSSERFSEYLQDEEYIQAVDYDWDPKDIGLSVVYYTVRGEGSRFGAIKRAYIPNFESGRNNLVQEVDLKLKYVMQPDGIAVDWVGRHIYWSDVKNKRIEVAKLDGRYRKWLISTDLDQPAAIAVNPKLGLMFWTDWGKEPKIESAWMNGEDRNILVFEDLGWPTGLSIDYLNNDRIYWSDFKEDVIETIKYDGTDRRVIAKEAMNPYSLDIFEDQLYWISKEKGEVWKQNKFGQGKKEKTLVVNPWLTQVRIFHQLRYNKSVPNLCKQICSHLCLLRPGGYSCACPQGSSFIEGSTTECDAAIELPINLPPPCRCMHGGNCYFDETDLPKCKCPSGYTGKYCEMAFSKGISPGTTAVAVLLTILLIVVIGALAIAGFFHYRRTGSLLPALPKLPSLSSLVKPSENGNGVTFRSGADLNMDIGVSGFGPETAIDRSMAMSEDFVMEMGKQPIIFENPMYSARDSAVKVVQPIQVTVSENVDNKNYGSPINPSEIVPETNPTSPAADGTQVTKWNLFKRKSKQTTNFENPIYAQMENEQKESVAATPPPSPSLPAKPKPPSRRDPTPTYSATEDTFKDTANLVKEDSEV

COc1ccc(NC(=O)\C=C(C)/C=C/C=C(C)\C=C\C2=C(C)CCCC2(C)C)cc1 (stereo in doubt) [MPR, 4-methoxyphenylretinamide]
retinol and RBP levels in serum [1]: reduce | expression of megalin-immunoreactive proteins in eyecup [2]: reduced expression

RAP: 39 kDa receptor-associated protein, chaperone and universal ligand binding antagonist of LDL receptor gene family members
Kd [3]: 8 nM | reduction in retinol uptake as measured by retinyl ester content ([4]; RAP pre-treatment, retinyl esters by HPLC): ~50% | apical uptake of IRBP* [4, 11]: completely suppressed | basal uptake of RBP* [4, 11]: completely suppressed | Kd [5]: 0.7 nM | binding sites occupied on the receptor protein megalin [6]: two | Kd [7]: 500 nM | inhibition of RBP-retinol uptake by RAP [8]: 47% | Kd [9]: 4 nM

gentamicin [reference compound]
molecules bound per megalin protein [6]: 60-100

receptor-associated protein (RAP) obtained from Oxford Biomedical Research
inhibition of basal RBP-retinol uptake in human RPE cultures (HPLC of intracellular atRE and atROL) after RAP pre-treatment [10]: 47% | reduction in retinol uptake as measured by retinyl ester content (HPLC) after RAP pre-treatment [10]: 50%
